In patent US20250221413A1, “Use and Preparation Method of Sulfoxamyl, and Oxidation System” (priority 2023, published 2025):
≈ marks a conversion by molar mass, not a printed value. Where “and” joins values, the source holds several entries; their conditions need not be identical. Identical values can stand only once. Entries after “also recorded” stand apart in the source; their conditions may differ.

Assays:
SD rats [1] = assay: Acute oral toxicity test, single oral fixed-dose procedure; assay type: in vivo
Procedure: (§1) Materials: the test agent 98% sulfoxamyl technical, batch number 20230708-1, was provided by Ningxia Hugerise Chemical Co., Ltd. Experimental animals: SPF-grade SD rats, half male and half female, weighing 180 g to 220 g, were provided by Jinan Pengyue Experimental Animal Breeding Co., Ltd., license number SCXK (Lu) 20190003. Rearing environment: the rats were housed in an SPF-grade animal room with free access to water and food, a temperature of 20° C. to 25° C., a humidity of 40% to 60%, and a 12 h/12 h light cycle. Feed: conventional pellet feed was provided by Jinan Pengyue Experimental Animal Breeding Co., Ltd.
(§2) The test was conducted in accordance with “Toxicological test methods of pesticides for registration, GB15670.5-2017”, “Acute toxicity test, GB15193.3-2003” and relevant acute toxicity research data.
Methods: a single oral fixed-dose procedure was conducted to preliminarily explore the toxic dose range of sulfoxamyl. LD50 and confidence limits were calculated by using the probability unit method (Bliss method). SD rats were randomly divided into 5 groups, 10 rats in each group, half of them were male and half were female. […] The common ratio value among each dose group was 0.75. After a single oral administration, the mortality rate of the experimental animals was recorded within 24 h and 14 days after administration, while the general condition of the animals was observed, and the food intake and body weight changes were recorded.

[2] = Acute oral toxicity test, probability unit method (Bliss method), LD50 by Probit regression; assay type: in vivo, SD rats; conditions: both sexes, Sprague-Dawley, rat, in vivo, po; SD rats, Probit regression
Procedure: as §1, §2
(§3) Methods: a single oral fixed-dose procedure was conducted to preliminarily explore the toxic dose range of sulfoxamyl. LD50 and confidence limits were calculated by using the probability unit method (Bliss method). SD rats were randomly divided into 5 groups, 10 rats in each group, half of them were male and half were female. The dosages administered to each group were 474.61 mg/kg, 632.81 mg/kg, 843.75 mg/kg, 1,125 mg/kg, and 1,500 mg/kg. The common ratio value among each dose group was 0.75. After a single oral administration, the mortality rate of the experimental animals was recorded within 24 h and 14 days after administration, while the general condition of the animals was observed, and the food intake and body weight changes were recorded.
(§4) According to the above test dose, number of animals, number of deaths and other data, SPSS statistical software was used to calculate LD50 by Probit regression, and the results are shown in Table 3.

SD rats [3] = assay: as above; assay type: in vivo; conditions: for Death count: 24 h
Procedure: as §1, §2, §3, §4

[4] = Acute skin toxicity test (limit test); assay type: in vivo, SD rats; conditions: both sexes, rat, in vivo, topical, 2000 mg/kg; SD rats, 24 h exposure, 14 days observation; read-out: acute percutaneous toxicity LD50
Procedure: as §1, §2
Method: the sulfoxamyl was ground into powder, passed through a 200-mesh sieve, and fully moistened with 0.5% tragacanth solution to ensure desirable contact between the drug and the skin. The dose limit of the drug's transdermal toxicity was preliminarily determined through a limit test. According to the “Toxicological test methods of pesticides for registration, GB/T 15670.5-2017”, 2,000 mg/kg was selected as the dose limit. 10 SD rats were selected, half male and half female. After removing the fur and preparing the skin on the midline of the rats' backs, the prepared skin area was 36 cm^2 to 40 cm^2. The drug was evenly applied to the fur-removed area and covered and fixed with multiple layers of sterile gauze; after 24 h of exposure to the poison, the residual drug on the skin was removed; the rats were observed once a day for 14 consecutive days, and their poisoning reaction, development process, and death were recorded.

[5] = system: Meloidogyne incognita eggs; assay: Inhibitory effect on hatching of Meloidogyne incognita eggs; assay type: in vivo
Text: Materials: the tested nematodes were collected from three different areas, namely cucumber crops in Dawenkou Town, Tai'an City, Shandong Province, and were all identified as southern root-knot nematodes (Meloidogyne incognita). The diseased roots were washed, cut into small sections of 0.5 cm to 1 cm, rinsed in 1% NaClO solution for about 30 s to 60 s, and rinsed with 200-mesh and 500-mesh sieves to collect nematode eggs for later use.
The agent was 98% sulfoxamyl technical, and the comparison agents were 96% oxamyl technical and 87% fosthiazate technical.

[6] = Meloidogyne incognita, 168 h, egg hatching, 7 d

SMILES: CNC(=O)O/N=C(/C(=O)N(C)C)S(C)(=O)=O [Sulfoxamyl, N,N-dimethyl-2-[[[(methylamino)carbonyl]oxy]imino]-2-(methylsulfonyl)acetamide]
- Main clinical symptom (SD rats [1]; single oral dose 50 mg/kg): Asymptomatic
- Death count (SD rats [1]; single oral dose 50 mg/kg, 50 mg/kg): 0/6
- Death count (SD rats [1]; single oral dose 50 mg/kg, listed as sulfoxamyl, 50 mg/kg): no animals die
- Main clinical symptom (SD rats [1]; single oral dose 500 mg/kg): Some rats with intense abdominal breathing,
- Death count (SD rats [1]; single oral dose 500 mg/kg, 500 mg/kg): 0/6
- Death count (SD rats [1]; single oral dose 500 mg/kg, listed as sulfoxamyl, 500 mg/kg): no animals die
- Main clinical symptom (SD rats [1]; single oral dose 1000 mg/kg): Intense abdominal breathing,
- Death count (SD rats [1]; single oral dose 1000 mg/kg, 1000 mg/kg): 8/10
- Death count (SD rats [1]; single oral dose 1000 mg/kg, listed as sulfoxamyl, 1000 mg/kg): 8
- Main clinical symptom (SD rats [1]; single oral dose 2000 mg/kg): Intense abdominal breathing,
- Death count (SD rats [1]; single oral dose 2000 mg/kg, 2000 mg/kg): 6/6
- Death count (SD rats [1]; single oral dose 2000 mg/kg, listed as sulfoxamyl, 2000 mg/kg): all animals
- LD50 at 14 days [2]: 822 mg/kg
- toxicity level (acute oral) (SD rats [3]; GB15670-1995 classification): low toxic; also recorded: Low Toxicity
- Probit Estimation for dose (SD rats [3]; Probability 0.010): 379.474 mg/kg
- Probit Estimation for log(dose) (SD rats [3]; Probability 0.010): 2.579
- Probit Estimation for dose (SD rats [3]; Probability 0.020): 415.442 mg/kg
- Probit Estimation for log(dose) (SD rats [3]; Probability 0.020): 2.619
- Probit Estimation for dose (SD rats [3]; Probability 0.030): 440.010 mg/kg
- Probit Estimation for log(dose) (SD rats [3]; Probability 0.030): 2.643
- Probit Estimation for dose (SD rats [3]; Probability 0.040): 459.445 mg/kg
- Probit Estimation for log(dose) (SD rats [3]; Probability 0.040): 2.662
- Probit Estimation for dose (SD rats [3]; Probability 0.050): 475.885 mg/kg
- Probit Estimation for log(dose) (SD rats [3]; Probability 0.050): 2.678
- Probit Estimation for dose (SD rats [3]; Probability 0.060): 490.341 mg/kg
- Probit Estimation for log(dose) (SD rats [3]; Probability 0.060): 2.690
- Probit Estimation for dose (SD rats [3]; Probability 0.070): 503.377 mg/kg
- Probit Estimation for log(dose) (SD rats [3]; Probability 0.070): 2.702
- Probit Estimation for dose (SD rats [3]; Probability 0.080): 515.342 mg/kg
- Probit Estimation for log(dose) (SD rats [3]; Probability 0.080): 2.712
- Probit Estimation for dose (SD rats [3]; Probability 0.090): 526.471 mg/kg
- Probit Estimation for log(dose) (SD rats [3]; Probability 0.090): 2.721
- Probit Estimation for dose (SD rats [3]; Probability 0.100): 536.928 mg/kg
- Probit Estimation for log(dose) (SD rats [3]; Probability 0.100): 2.730
- Probit Estimation for dose (SD rats [3]; Probability 0.150): 582.478 mg/kg
- Probit Estimation for log(dose) (SD rats [3]; Probability 0.150): 2.765
- Probit Estimation for dose (SD rats [3]; Probability 0.200): 621.421 mg/kg
- Probit Estimation for log(dose) (SD rats [3]; Probability 0.200): 2.793
- Probit Estimation for dose (SD rats [3]; Probability 0.250): 656.898 mg/kg
- Probit Estimation for log(dose) (SD rats [3]; Probability 0.250): 2.817
- Probit Estimation for dose (SD rats [3]; Probability 0.300): 690.481 mg/kg
- Probit Estimation for log(dose) (SD rats [3]; Probability 0.300): 2.839
- Probit Estimation for dose (SD rats [3]; Probability 0.350): 723.131 mg/kg
- Probit Estimation for log(dose) (SD rats [3]; Probability 0.350): 2.859
- Probit Estimation for dose (SD rats [3]; Probability 0.400): 755.539 mg/kg
- Probit Estimation for log(dose) (SD rats [3]; Probability 0.400): 2.878
- Probit Estimation for dose (SD rats [3]; Probability 0.450): 788.276 mg/kg
- Probit Estimation for log(dose) (SD rats [3]; Probability 0.450): 2.897
- Probit Estimation for dose (SD rats [3]; Probability 0.500): 821.879 mg/kg
- Probit Estimation for log(dose) (SD rats [3]; Probability 0.500): 2.915
- Probit Estimation for dose (SD rats [3]; Probability 0.550): 856.914 mg/kg
- Probit Estimation for log(dose) (SD rats [3]; Probability 0.550): 2.933
- Probit Estimation for dose (SD rats [3]; Probability 0.600): 894.044 mg/kg
- Probit Estimation for log(dose) (SD rats [3]; Probability 0.600): 2.951
- Probit Estimation for dose (SD rats [3]; Probability 0.650): 934.112 mg/kg
- Probit Estimation for log(dose) (SD rats [3]; Probability 0.650): 2.970
- Probit Estimation for dose (SD rats [3]; Probability 0.700): 978.282 mg/kg
- Probit Estimation for log(dose) (SD rats [3]; Probability 0.700): 2.990
- Probit Estimation for dose (SD rats [3]; Probability 0.750): 1028.295 mg/kg
- Probit Estimation for log(dose) (SD rats [3]; Probability 0.750): 3.012
- Probit Estimation for dose (SD rats [3]; Probability 0.800): 1087.001 mg/kg
- Probit Estimation for log(dose) (SD rats [3]; Probability 0.800): 3.036
- Probit Estimation for dose (SD rats [3]; Probability 0.850): 1159.674 mg/kg
- Probit Estimation for log(dose) (SD rats [3]; Probability 0.850): 3.064
- Probit Estimation for dose (SD rats [3]; Probability 0.900): 1258.055 mg/kg
- Probit Estimation for log(dose) (SD rats [3]; Probability 0.900): 3.100
- Main clinical symptom (SD rats [3]; oral 474.61 mg/kg): Asymptomatic
- Death count (SD rats [3]; oral 474.61 mg/kg, 474.61 mg/kg): no experimental animals and 0/10
- Main clinical symptom (SD rats [3]; oral 632.81 mg/kg): Intense abdominal breathing,
- Death count (SD rats [3]; oral 632.81 mg/kg, 632.81 mg/kg): 3 and 3/10
- Main clinical symptom (SD rats [3]; oral 843.75 mg/kg): Intense abdominal breathing, malaise, drooling, tremors
- Death count (SD rats [3]; oral 843.75 mg/kg, 843.75 mg/kg): 6 and 6/10
- Main clinical symptom (SD rats [3]; oral 1125 mg/kg): Intense abdominal breathing, malaise, drooling, tremors
- Death count (SD rats [3]; oral 1125 mg/kg, 1125 mg/kg): 7 and 8/10
- Main clinical symptom (SD rats [3]; oral 1500 mg/kg): Intense abdominal breathing,
- Death count (SD rats [3]; oral 1500 mg/kg, 1500 mg/kg): all animals and 10/10
- new deaths 14 days after administration compared to 24 h (SD rats [3]; oral, all dose groups): no new deaths
- LD50 at 14 days [4]: > 2000 mg/kg
- Number of hatched eggs/7 d ([5]; 6.25 mg/L, 7 d): 102 and 92 and 96
- Number of unhatched eggs/7 d ([5]; 6.25 mg/L, 7 d): 31 and 25 and 33
- Number of hatched eggs/7 d ([5]; 12.5 mg/L, 7 d): 83 and 85 and 88
- Number of unhatched eggs/7 d ([5]; 12.5 mg/L, 7 d): 32 and 33 and 40
- Number of hatched eggs/7 d ([5]; 25 mg/L, 7 d): 85 and 79 and 86
- Number of unhatched eggs/7 d ([5]; 25 mg/L, 7 d): 45 and 41 and 38
- Number of hatched eggs/7 d ([5]; 50 mg/L, 7 d): 57 and 55 and 49
- Number of unhatched eggs/7 d ([5]; 50 mg/L, 7 d): 81 and 75 and 77
- Number of hatched eggs/7 d ([5]; 100 mg/L, 7 d): 44 and 40 and 42
- Number of unhatched eggs/7 d ([5]; 100 mg/L, 7 d): 93 and 85 and 88
- IC50 [5, 6]: 59.5 µg/mL (≈ 237 µM)
- IC90 [5, 6]: 511 µg/mL (≈ 2030 µM)
- inhibitory effect on hatching of nematode eggs, in words ([5]; in vivo): desirable inhibitory effect
